This passage reports % of control, % activity and % of inhibition results from ChEMBL document CHEMBL5465560, “Selectivity Literature for EUbOPEN Chemogenomic Library” (2024).

Test [1] deals with T1, Activin receptor type-1B (Homo sapiens) (UniProt P36896).
T1 sequence (whole entry): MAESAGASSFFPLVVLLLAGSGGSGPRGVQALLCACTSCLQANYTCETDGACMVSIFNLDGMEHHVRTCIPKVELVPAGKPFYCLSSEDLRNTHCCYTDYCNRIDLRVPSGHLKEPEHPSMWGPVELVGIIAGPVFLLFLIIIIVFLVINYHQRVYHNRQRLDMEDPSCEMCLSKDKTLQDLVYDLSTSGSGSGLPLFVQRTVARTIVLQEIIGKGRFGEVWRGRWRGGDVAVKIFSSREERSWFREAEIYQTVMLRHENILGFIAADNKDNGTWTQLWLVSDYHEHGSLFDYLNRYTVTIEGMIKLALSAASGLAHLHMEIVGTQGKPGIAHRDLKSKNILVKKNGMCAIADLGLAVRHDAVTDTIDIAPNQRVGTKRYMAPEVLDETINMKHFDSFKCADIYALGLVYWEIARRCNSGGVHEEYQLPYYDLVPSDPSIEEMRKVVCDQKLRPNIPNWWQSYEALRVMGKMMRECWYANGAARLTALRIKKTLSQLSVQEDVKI
Put plainly: Selectivity interaction (Ambit KINOMEscan and KiNATiv profiling in Jurkat cells) EUB0000090b ACVR1B. Type of test: cell-based. The conditions noted are these: at 1 µM.

Test [2] deals with N-lysine methyltransferase SMYD2 (Homo sapiens) (UniProt Q9NRG4). The conditions noted are these: at 10 µM.
Sequence of N-lysine methyltransferase SMYD2 (Homo sapiens) (Q9NRG4 whole entry): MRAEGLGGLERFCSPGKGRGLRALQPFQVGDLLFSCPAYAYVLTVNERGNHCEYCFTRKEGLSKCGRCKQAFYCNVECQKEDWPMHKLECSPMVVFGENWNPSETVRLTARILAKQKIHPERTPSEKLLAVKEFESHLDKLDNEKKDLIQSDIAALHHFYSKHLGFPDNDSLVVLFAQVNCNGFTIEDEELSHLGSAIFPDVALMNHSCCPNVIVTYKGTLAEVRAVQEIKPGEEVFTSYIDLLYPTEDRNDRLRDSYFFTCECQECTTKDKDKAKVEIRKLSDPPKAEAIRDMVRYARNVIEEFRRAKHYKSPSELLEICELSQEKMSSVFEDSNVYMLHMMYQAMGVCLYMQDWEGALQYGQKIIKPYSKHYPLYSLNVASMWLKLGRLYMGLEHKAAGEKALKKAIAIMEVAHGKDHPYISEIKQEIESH
The target in test [3] is T2, Cyclin-G-associated kinase (Homo sapiens) (UniProt O14976).
T2 sequence (whole entry): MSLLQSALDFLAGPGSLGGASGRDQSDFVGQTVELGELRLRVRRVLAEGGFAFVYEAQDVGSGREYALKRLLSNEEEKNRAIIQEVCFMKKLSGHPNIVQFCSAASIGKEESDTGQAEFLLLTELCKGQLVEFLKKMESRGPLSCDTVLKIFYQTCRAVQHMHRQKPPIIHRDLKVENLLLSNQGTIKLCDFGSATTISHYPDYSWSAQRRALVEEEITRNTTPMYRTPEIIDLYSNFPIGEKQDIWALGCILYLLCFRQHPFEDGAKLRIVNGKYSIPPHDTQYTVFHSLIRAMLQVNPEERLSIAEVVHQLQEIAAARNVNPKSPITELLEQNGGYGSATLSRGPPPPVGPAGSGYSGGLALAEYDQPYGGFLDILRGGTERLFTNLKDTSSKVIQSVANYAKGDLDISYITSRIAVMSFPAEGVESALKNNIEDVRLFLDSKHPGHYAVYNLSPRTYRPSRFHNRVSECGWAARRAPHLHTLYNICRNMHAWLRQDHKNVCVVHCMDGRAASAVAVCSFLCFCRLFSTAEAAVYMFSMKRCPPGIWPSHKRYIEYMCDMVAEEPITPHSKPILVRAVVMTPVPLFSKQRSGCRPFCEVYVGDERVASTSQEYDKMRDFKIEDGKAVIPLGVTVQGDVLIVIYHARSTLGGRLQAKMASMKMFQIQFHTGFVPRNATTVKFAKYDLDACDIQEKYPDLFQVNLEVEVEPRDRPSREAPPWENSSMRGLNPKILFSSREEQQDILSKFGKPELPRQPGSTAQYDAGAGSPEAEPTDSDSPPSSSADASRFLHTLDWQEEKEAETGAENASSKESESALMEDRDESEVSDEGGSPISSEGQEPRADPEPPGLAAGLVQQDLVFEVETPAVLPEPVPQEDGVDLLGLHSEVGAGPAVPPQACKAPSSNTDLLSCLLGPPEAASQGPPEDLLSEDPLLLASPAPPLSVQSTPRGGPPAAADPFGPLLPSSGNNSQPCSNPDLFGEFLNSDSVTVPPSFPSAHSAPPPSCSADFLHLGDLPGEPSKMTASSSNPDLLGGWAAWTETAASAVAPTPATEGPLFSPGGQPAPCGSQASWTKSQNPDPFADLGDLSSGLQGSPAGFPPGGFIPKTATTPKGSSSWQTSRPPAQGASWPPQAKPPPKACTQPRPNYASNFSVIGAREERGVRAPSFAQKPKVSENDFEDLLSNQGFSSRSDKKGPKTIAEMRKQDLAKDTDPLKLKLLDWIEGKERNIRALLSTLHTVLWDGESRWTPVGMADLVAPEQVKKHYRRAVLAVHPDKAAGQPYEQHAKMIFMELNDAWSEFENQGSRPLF
The test can be described thus: Selectivity interaction (ActivX KiNativ screen (kinase selectivity in THP-1 cell lysates)) EUB0000639a GAK. Type of test: subcellular. The conditions noted are these: lysate.

The target of test [4] is AP2-associated protein kinase 1 (Homo sapiens, UniProt Q2M2I8). Put plainly: Selectivity interaction (KinomeScan (DiscoverX)) EUB0000045b AAK1.
Sequence of AP2-associated protein kinase 1 (Q2M2I8 whole entry, looked up): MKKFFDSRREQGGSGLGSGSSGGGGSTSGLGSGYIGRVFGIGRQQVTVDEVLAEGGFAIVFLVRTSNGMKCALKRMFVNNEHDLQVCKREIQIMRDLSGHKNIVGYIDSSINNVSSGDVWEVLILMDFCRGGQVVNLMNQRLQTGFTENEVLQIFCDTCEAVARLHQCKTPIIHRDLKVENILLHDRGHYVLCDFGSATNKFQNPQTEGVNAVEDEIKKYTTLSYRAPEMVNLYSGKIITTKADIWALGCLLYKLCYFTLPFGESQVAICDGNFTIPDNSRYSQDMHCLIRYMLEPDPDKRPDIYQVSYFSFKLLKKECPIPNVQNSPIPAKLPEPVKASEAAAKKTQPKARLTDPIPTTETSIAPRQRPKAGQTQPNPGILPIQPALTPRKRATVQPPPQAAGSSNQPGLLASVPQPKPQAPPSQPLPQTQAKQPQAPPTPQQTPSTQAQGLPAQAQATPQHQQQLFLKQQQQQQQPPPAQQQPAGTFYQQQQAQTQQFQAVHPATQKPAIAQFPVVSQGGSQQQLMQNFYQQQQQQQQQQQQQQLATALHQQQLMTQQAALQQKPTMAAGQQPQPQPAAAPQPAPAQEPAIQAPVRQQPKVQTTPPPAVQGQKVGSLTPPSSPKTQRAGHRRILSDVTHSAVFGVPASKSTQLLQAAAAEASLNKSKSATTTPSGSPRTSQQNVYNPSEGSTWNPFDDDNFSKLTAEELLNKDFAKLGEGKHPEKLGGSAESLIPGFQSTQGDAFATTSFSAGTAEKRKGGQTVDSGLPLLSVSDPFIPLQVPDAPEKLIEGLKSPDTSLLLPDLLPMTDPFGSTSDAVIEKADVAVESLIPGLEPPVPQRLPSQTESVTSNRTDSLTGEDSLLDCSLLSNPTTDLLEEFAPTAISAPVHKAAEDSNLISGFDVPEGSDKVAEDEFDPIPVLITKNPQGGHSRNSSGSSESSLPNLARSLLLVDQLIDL

Bounds are passed on as bounds.

With `CN(C)C/C=C/C(=O)Nc1ccc(C(=O)N2CCCC(Nc3ncc(Cl)c(-c4c[nH]c5ccccc45)n3)C2)cc1` (centres undefined), the % of control in test [1] is 96%.
For `CNCCN1CCC(c2cc(CN(C)C(=O)c3cccc(Oc4ccccc4)c3)ccn2)CC1`, the % activity in test [2] was greater than 90%.
For `CC[C@@H]1[C@H](F)C(=O)N[C@@H]1COc1nccc2cc(C(N)=O)c(OC)cc12` [ZIMLOVISERTIB], the % of inhibition in test [3] (at 0.01 µM) was 16.2%; in test [3] (at 0.04 µM), 3.7%; in test [3] (at 0.2 µM), -10%; in test [3] (at 1 µM), 15.7%; in test [3] (at 5 µM), 63.1%.
Turning to `C=CC(=O)Nc1cc(-n2c(=O)ccc3cnc4ccc(-c5ccc(NS(C)(=O)=O)cc5)cc4c32)ccc1C`, the % of control came to 93% in test [4] (at 1 µM) and 58% in test [4] (at 10 µM).
